Results published in patent publication US20220282217A1, “COMPOSITIONS AND METHODS FOR PREPARING T CELL COMPOSITIONS AND USES THEREOF” (priority 2019, published 2022).
“And” between values parts separate entries of the source, which are not always exact repeats. Identical values can stand only once. Like-named read-outs stand apart in the source and are kept apart here. Where a SMILES comes first, the peptide text is derived from it.

Tests used:
HLA-A01.01 = HLA-A01.01 (Homo sapiens, UniProt P04439, A114D/A174V/A182V/D101N/D185E/E176A/E190D/L180R/Q94H/R68K/S129P/T187R/V100A/V91M/W191G); test: Class I MHC peptide binding affinity (displacement of radiolabeled reference peptide); settings: for IC50: (nM)), allele A01.01
In short: (§1)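 Displacement format in which varying amounts of peptide compete for 2 days with a radiolabeled reference ligand prebound to class I MHC, residual complex-associated label being measured after gel-filtration separation.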

HLA-A02.01 [1] = target: HLA-A02.01 (Homo sapiens, UniProt P04439, D140Y/D185E/D98H/E176V/E277Q/G131W/G231S/I119V/I121R/I166T/I218V/L300P/L318F/N151K/N90K/P208A/P217A/Q86G/Q94H/R138H/R169H/T345S); test: as above; settings: for IC50: (nM)), allele A02.01
In short: as §1

HLA-B07.02 [2] = target: T1, HLA-B07.02 (Homo sapiens, UniProt P01889); test: Class I MHC peptide binding stability (pMHC-I dissociation, 125I-labeled light chain); design: made in house; host or cells: E. coli; settings: Allele B07.02
HLA-A02.01 [3] = target: T2, HLA-A02.01 (Homo sapiens, UniProt P04439, D140Y/D185E/D98H/E176V/E277Q/G131W/G231S/I119V/I121R/I166T/I218V/N151K/N90K/P208A/P217A/Q86G/Q94H/R138H/R169H); test: as above; settings: allele A02.01
T2 construct: made in house; host or cells: E. coli

HLA-A24.02 [4] = test: as above; design: species or system human; settings: for Stability (T1/2 (h)): allele A24.02
HLA-A24.02 [5] = test: Class I MHC peptide binding affinity (displacement of radiolabeled reference peptide); design: species or system human
HLA-B07.02 [6] = target: T1, HLA-B07.02; test: as above; settings: Allele B07.02; read-out: Observed Affinity (IC50; (nM))
HLA-A03.01 = HLA-A03.01 (Homo sapiens, UniProt P04439); test: as above; settings: allele A03.01; read-out: Observed Affinity (IC50; (nM))
[7] = read-out: Observed Affinity (IC50
[8] = allele A24.02, read-out: Observed Affinity (IC50, (nM))

Row | Compound | Stability (T1/2 (h)) (HLA-B07.02 [2]) [h] | Stability (T1/2 (h)) (HLA-A02.01 [3]) [h] | IC50 (HLA-A02.01 [1]; [7]) | Stability (T1/2 (h)) (HLA-A24.02 [4]) [h] | IC50 (HLA-A24.02 [5]; [8]) [nM] | other results
1 | CC[C@H](C)[C@H](NC(=O)[C@H](CC(C)C)NC(=O)[C@H](CCC(N)=O)NC(=O)[C@@H](NC(=O)[C@@H](NC(=O)[C@H](CO)NC(=O)[C@@H](NC(=O)[C@H](CC(C)C)NC(=O)[C@@H](N)CS)[C@@H](C)O)[C@@H](C)O)C(C)C)C(=O)N[C@@H](CCSC)C(=O)O |  |  |  |  |  | Kd (HLA-A01.01): 8280 nM; IC50 (HLA-A01.01; Observed Affinity (IC50): 11000 nM; Kd (HLA-A02.01 [1]): 537 nM; IC50 (HLA-A02.01 [1]; Observed Affinity (IC50): 716 nM
2 | C[C@H](NC(=O)[C@H](CO)NC(=O)[C@H](C)NC(=O)[C@@H]1CCCN1C(=O)[C@H](C)NC(=O)[C@@H]1CCCN1C(=O)[C@H](CCCNC(=N)N)NC(=O)[C@@H]1CCCN1C(=O)[C@@H](N)Cc1c[nH]cn1)C(=O)O | 4.9 |  |  |  |  | 
3 | CSCC[C@H](NC(=O)[C@H](CC(C)C)NC(=O)[C@@H](N)CCCCN)C(=O)N[C@@H](CC(C)C)C(=O)N[C@@H](CC(C)C)C(=O)N[C@@H](CCCNC(=N)N)C(=O)N[C@@H](CC(C)C)C(=O)N[C@@H](CC(N)=O)C(=O)N[C@@H](CC(C)C)C(=O)O | 1.5 | 16.9 | 17 nM and 2.6 nM |  |  | 
4 | CC(C)C[C@H](N)C(=O)N1CCC[C@H]1C(=O)N[C@@H](CCCNC(=N)N)C(=O)N[C@@H](CCCCN)C(=O)N1CCC[C@H]1C(=O)N[C@H](C(=O)N[C@@H](CCCNC(=N)N)C(=O)N[C@@H](C)C(=O)N[C@@H](C)C(=O)O)[C@@H](C)O | 5.5 |  |  |  |  | 
5 | CC[C@H](C)[C@H](NC(=O)[C@@H]1CCCN1C(=O)[C@H](CC(C)C)NC(=O)[C@H](Cc1ccccc1)NC(=O)[C@H](CC(C)C)NC(=O)[C@H](CO)NC(=O)[C@H](CC(=O)O)NC(=O)[C@@H](NC(=O)[C@H](CC(C)C)NC(=O)[C@@H](N)CCSC)[C@@H](C)O)C(=O)O |  | 1 |  |  |  | IC50 (HLA-A01.01; [7]): 7670 nM
6 | CC[C@H](C)[C@H](NC(=O)[C@H](CO)NC(=O)[C@H](Cc1c[nH]c2ccccc12)NC(=O)[C@H](Cc1c[nH]cn1)NC(=O)[C@H](C)NC(=O)[C@@H]1CCCN1C(=O)[C@H](CCSC)NC(=O)[C@H](CC(C)C)NC(=O)[C@@H](N)CO)C(=O)O |  | 5 | 48 nM | 0.4 | 633 | 
7 | CC(C)C[C@H](NC(=O)[C@H](CC(C)C)NC(=O)[C@H](CC(C)C)NC(=O)CNC(=O)[C@H](Cc1ccc(O)cc1)NC(=O)[C@H](CC(C)C)NC(=O)[C@@H]1CCCN1C(=O)[C@@H](NC(=O)[C@@H](N)C(C)C)C(C)C)C(=O)O |  | 0.6 | 1040 nM | 0.8 | 658 | 
8 | CC(C)C[C@H](NC(=O)[C@H](C)N)C(=O)N[C@@H](CO)C(=O)N[C@@H](C)C(=O)N[C@@H](CO)C(=O)N[C@@H](CC(N)=O)C(=O)N[C@@H](CO)C(=O)N[C@@H](CS)C(=O)N[C@@H](Cc1ccccc1)C(=O)O (H-ALSASNSCF-OH; N-terminus and C-terminus assumed) |  | 0.3 | 728 nM | 0.2 | 16300 | IC50 (HLA-B07.02 [6]): 684 nM
9 | CC(C)C[C@H](NC(=O)[C@H](Cc1ccccc1)NC(=O)[C@H](CO)NC(=O)[C@H](CC(C)C)NC(=O)[C@@H](N)CS)C(=O)N[C@@H](CO)C(=O)N[C@@H](CO)C(=O)N[C@@H](Cc1c[nH]c2ccccc12)C(=O)N[C@@H](CC(=O)O)C(=O)N[C@@H](Cc1ccc(O)cc1)C(=O)O (H-CLSFLSSWDY-OH; N-terminus and C-terminus assumed) |  |  |  |  |  | IC50 (HLA-A03.01): 2710 nM; IC50 (HLA-A01.01; [7]): 987 nM
10 | CSCC[C@H](NC(=O)[C@H](Cc1ccc(O)cc1)NC(=O)[C@@H](N)CCC(=O)O)C(=O)N[C@@H](C)C(=O)N[C@@H](CC(N)=O)C(=O)NCC(=O)N[C@@H](CO)C(=O)N[C@@H](CC(C)C)C(=O)N[C@@H](CC(C)C)C(=O)O (H-EYMANGSLL-OH; N-terminus and C-terminus assumed) |  |  |  |  | 5 | Stability (half-life (hr.)) (HLA-A24.02 [4]; BTK C481S peptide, HLA Allele A24.02): 5.716 h; IC50 (HLA-A24.02 [5]; BTK C481S peptide, HLA Allele A24.02, read-out: Affinity): 4.96 nM
11 | CC(C)[C@H](NC(=O)[C@H](CO)NC(=O)[C@@H](NC(=O)[C@@H](NC(=O)[C@H](C)NC(=O)[C@H](C)NC(=O)[C@H](CCCNC(=N)N)NC(=O)[C@@H](NC(=O)[C@@H]1CCCN1C(=O)[C@@H](N)CCCCN)[C@@H](C)O)[C@@H](C)O)C(C)C)C(=O)O (H-KPTRAATVSV-OH; N-terminus and C-terminus assumed) | 3 |  |  |  |  | IC50 (HLA-B07.02 [6]): 8 nM
12 | CC(C)C[C@H](N)C(=O)N1CCC[C@H]1C(=O)N[C@@H](CCCNC(=N)N)C(=O)N[C@@H](CCCCN)C(=O)N1CCC[C@H]1C(=O)N[C@H](C(=O)N[C@@H](CCCNC(=N)N)C(=O)N[C@@H](C)C(=O)N[C@@H](C)C(=O)N[C@H](C(=O)O)[C@@H](C)O)[C@@H](C)O (H-LPRKPTRAAT-OH; N-terminus and C-terminus assumed) | 3.7 |  |  |  |  | IC50 (HLA-B07.02 [6]): 3 nM
13 | CC[C@H](C)[C@H](NC(=O)[C@@H](NC(=O)[C@H](CC(C)C)NC(=O)[C@@H](NC(=O)[C@@H]1CCCN1C(=O)[C@H](CCCNC(=N)N)NC(=O)[C@H](Cc1c[nH]c2ccccc12)NC(=O)[C@H](CC(N)=O)NC(=O)[C@@H](N)CCSC)[C@@H](C)CC)[C@@H](C)O)C(=O)O (H-MNWRPILTI-OH; N-terminus and C-terminus assumed) |  | 3.8 | 516 nM | 0.2 | 6980 | 
14 | CSCC[C@H](NC(=O)[C@H](CCC(=O)O)NC(=O)[C@H](CC(C)C)NC(=O)[C@H](CC(C)C)NC(=O)[C@H](CC(C)C)NC(=O)CNC(=O)[C@H](Cc1ccc(O)cc1)NC(=O)[C@H](CC(C)C)NC(=O)[C@@H]1CCCN1)C(=O)N[C@@H](CC(C)C)C(=O)O (H-PLYGLLLEML-OH; N-terminus and C-terminus assumed) |  |  | 797 nM | 6.3 | 444 | 
15 | CC[C@H](C)[C@H](NC(=O)[C@H](CCCCN)NC(=O)[C@H](C)NC(=O)[C@@H](NC(=O)[C@@H](N)CCCNC(=N)N)C(C)C)C(=O)N[C@@H](C)C(=O)N[C@@H](CC(=O)O)C(=O)N[C@@H](Cc1ccccc1)C(=O)NCC(=O)N[C@@H](CCSC)C(=O)O (H-RVAKIADFGM-OH; N-terminus and C-terminus assumed) | 0.2 | 0.5 | 125 nM |  |  | IC50 (HLA-B07.02 [6]): 9720 nM
16 | CC(C)C[C@H](NC(=O)[C@H](CC(C)C)NC(=O)[C@H](CC(C)C)NC(=O)[C@H](CC(=O)O)NC(=O)[C@H](CS)NC(=O)[C@H](CC(C)C)NC(=O)[C@@H]1CCCN1C(=O)[C@@H](NC(=O)[C@@H](N)C(C)C)C(C)C)C(=O)O (H-VVPLCDLLL-OH; N-terminus and C-terminus assumed) |  |  | 1200 nM | 0.4 | 3890 | 
17 | CC(C)C[C@H](NC(=O)[C@H](CC(C)C)NC(=O)[C@H](CC(C)C)NC(=O)[C@H](CC(=O)O)NC(=O)[C@H](CO)NC(=O)[C@H](CC(C)C)NC(=O)[C@@H]1CCCN1C(=O)[C@@H](NC(=O)[C@@H](N)C(C)C)C(C)C)C(=O)O (H-VVPLSDLLL-OH; N-terminus and C-terminus assumed) |  |  | 2550 nM | 0.5 | 8250 | 
18 | CC[C@H](C)[C@H](NC(=O)[C@H](CC(=O)O)NC(=O)[C@H](Cc1ccccc1)NC(=O)[C@H](CC(C)C)NC(=O)[C@@H](NC(=O)[C@H](CCC(=O)O)NC(=O)[C@@H](NC(=O)[C@H](CCSC)NC(=O)[C@@H](N)Cc1c[nH]c2ccccc12)[C@@H](C)O)[C@@H](C)O)C(=O)N[C@H](C(=O)O)C(C)C (H-WMTETLFDIV-OH; N-terminus and C-terminus assumed) |  | 0.4 | 40 nM |  |  | IC50 (HLA-A01.01; [7]): 14400 nM
19 | C[C@H](NC(=O)[C@H](CC(N)=O)NC(=O)[C@@H](NC(=O)[C@@H](NC(=O)[C@@H](N)Cc1ccc(O)cc1)[C@@H](C)O)[C@@H](C)O)C(=O)N[C@@H](Cc1ccccc1)C(=O)N[C@@H](CO)C(=O)NCC(=O)N[C@@H](CCC(=O)O)C(=O)N[C@@H](Cc1ccc(O)cc1)C(=O)O (H-YTTNAFSGEY-OH; N-terminus and C-terminus assumed) |  |  |  |  |  | IC50 (HLA-A01.01; [7]): 10.5 nM
20 | CC(C)C[C@H](NC(=O)[C@H](C)NC(=O)[C@@H](NC(=O)[C@H](CCCNC(=N)N)NC(=O)[C@H](CO)NC(=O)[C@H](CC(=O)O)NC(=O)[C@H](CO)NC(=O)[C@H](CC(C)C)NC(=O)[C@@H](N)CCCCN)[C@@H](C)O)C(=O)O [KLSDSRTAL] | 6.8 | 2.8 |  |  |  | 
